Several values for one entry are separate records, joined by “and”; a condition that tells them apart may be missing. Identical values can stand only once.
System: murine model of ischemia/reperfusion injury (cerebral ischemia)
Experiment: Murine ischemia/reperfusion model: brain infarct size/volume by TTC staining
Format: in vivo, mouse
Parameters: Damaged Cross Section Area (sum of sections), individual mice: unit: mm^2
Conditions: for infarct size (Damaged %), Average: 4 mg/Kg I.V. 1 hr after occlusion, 1 hr ischemia; for infarct size (Damaged %), Average / infarct volume (Corrected Volume), Average: mean ± SEM
[1] = 4 mg/Kg after 1 hr ischemia, 24 hr reperfusion, n=6
[2] = 4 mg/Kg after 1 hr ischemia, 24 hr reperfusion, mice No. 1-6, listed as Pep-P

Tyr-D-Ala-Phe-Ala-Asp-Val-Ala-Ser-Thr-Ile-Gly-Asp-Phe-Phe-His-Ser-Ile-NH2 (AFADVASTIGDFFHSI; D-Ala, C-terminal amide; printed: Ala-Phe-Ala-Asp-Val-Ala-Ser-Thr-Ile-Gly-Asp-Phe-Phe-His-Ser-Ile-) [Peptide P, linear 17 amino acid peptide with alanine as D-isomer]
infarct size (Damaged %), Average (24 hr reperfusion, n=6): 16.87+/−3.3% | infarct size (Damaged %), Average (24 hr reperfusion, n=6, listed as Pep-P): 16.87 ± 3.3% | infarct volume (Corrected Volume), Average [1]: 24±4.8 mm^3 | infarct volume (Corrected Volume), Average (4 mg/Kg after 1 hr ischemia, 24 hr reperfusion, n=6, listed as Pep-P): 23.74 ± 4.8% mm^3 | Corrected Volume, individual mice (4 mg/Kg after 1 hr ischemia, 24 hr reperfusion, mice No. 1-6, Damaged Cross Section Area × 2 mm section, listed as Pep-P): 35.32 mm^3 and 5.10 mm^3 and 16.98 mm^3 and 35.86 mm^3 and 25.84 mm^3 and 23.36 mm^3 | Damaged %, individual mice [2]: 25.77% and 3.94% and 12.69% and 24.58% and 18.16% and 16.10% | Damaged Cross Section Area (sum of sections), individual mice [2]: 17.66 and 2.55 and 8.49 and 17.93 and 12.92 and 11.68 | Damaged Cross Section Area (sum of sections), Average [1]: 11.87 ± 2.4% | reduction of infarct volume compared to control animals (4 mg/kg, after 24 h of reperfusion): 59% | Damaged Cross Section Area 1, individual mice (brain section 1, 4 mg/Kg after 1 hr ischemia, 24 hr reperfusion, listed as Pep-P, 4 mg/kg): 3.69 and 0 (2×) and 1.42 and 1.89 and 0.27 | Damaged Cross Section Area 2, individual mice (brain section 2, 4 mg/Kg after 1 hr ischemia, 24 hr reperfusion, listed as Pep-P, 4 mg/kg): 5.66 and 0.32 and 1.38 and 3.27 and 4.59 and 1.8 | Damaged Cross Section Area 3, individual mice (brain section 3, 4 mg/Kg after 1 hr ischemia, 24 hr reperfusion, listed as Pep-P, 4 mg/kg): 6.47 and 1.12 and 2.63 and 7.23 and 2.22 and 5.15 | Damaged Cross Section Area 4, individual mice (brain section 4, 4 mg/Kg after 1 hr ischemia, 24 hr reperfusion, listed as Pep-P, 4 mg/kg): 1.84 and 1.11 and 3.06 and 5.54 and 6.11 and 4.46
